Assay results as given in ChEMBL document CHEMBL4308841, “Synthesis, in vitro antiproliferative activity, and kinase inhibitory effects of pyrazole-containing diarylureas and diarylamides” (Eur J Med Chem, 2018).

test system: DU-145; assay: Growth inhibition of human DU145 cells assessed as cell growth at 10 uM incubated for 48 hrs by sulforhodamine B assay relative to control; assay type: functional; settings: DU-145, 48 h, read-out: Activity

SMILES | growth at 10 µM
COc1cc(Cl)cc(-c2nn(-c3cccc(NC(=O)c4cccc(C(F)(F)F)c4)c3)cc2-c2ccncc2)c1 | 83.8%

test system: MDA-MB-468; assay: Growth inhibition of human MDA-MB-468 cells assessed as cell growth at 10 uM incubated for 48 hrs by sulforhodamine B assay relative to control; assay type: functional; settings: MDA-MB-468, 48 h, read-out: Activity

SMILES | growth at 10 µM
COc1cc(Cl)cc(-c2nn(-c3cccc(NC(=O)c4cccc(C(F)(F)F)c4)c3)cc2-c2ccncc2)c1 | 47%

test system: NCI/ADR-RES; assay: Growth inhibition of human NCI/ADR-RES cells incubated for 48 hrs by sulforhodamine B assay; assay type: functional, cell-based; settings: read-out: GI50

SMILES | GI50
COc1cc(Cl)cc(-c2nn(-c3cccc(NC(=O)c4cccc(C(F)(F)F)c4)c3)cc2-c2ccncc2)c1 | 5.38 µM

same assay, conditions: read-out: LC50 (the source's name)

SMILES | CC50
COc1cc(Cl)cc(-c2nn(-c3cccc(NC(=O)c4cccc(C(F)(F)F)c4)c3)cc2-c2ccncc2)c1 | > 100 µM

same assay, conditions: read-out: TGI

SMILES | TGI
COc1cc(Cl)cc(-c2nn(-c3cccc(NC(=O)c4cccc(C(F)(F)F)c4)c3)cc2-c2ccncc2)c1 | > 100 µM

same assay, conditions: read-out: pGI50 (converted)

SMILES | GI50
COc1cc(Cl)cc(-c2nn(-c3cccc(NC(=O)c4cccc(C(F)(F)F)c4)c3)cc2-c2ccncc2)c1 | 5.37 µM

same assay, conditions: read-out: pLC50 (the source's name) (converted)

SMILES | CC50
COc1cc(Cl)cc(-c2nn(-c3cccc(NC(=O)c4cccc(C(F)(F)F)c4)c3)cc2-c2ccncc2)c1 | > 100 µM

same assay, conditions: read-out: pTGI (converted)

SMILES | TGI
COc1cc(Cl)cc(-c2nn(-c3cccc(NC(=O)c4cccc(C(F)(F)F)c4)c3)cc2-c2ccncc2)c1 | > 100 µM

test system: LOX IMVI; assay: Growth inhibition of human LOXIMVI cells assessed as cell growth at 0.01 uM incubated for 48 hrs by sulforhodamine B assay relative to control; assay type: functional; settings: read-out: Activity

SMILES | growth at 0.01 µM
COc1cc(Cl)cc(-c2nn(-c3cccc(NC(=O)c4cccc(C(F)(F)F)c4)c3)cc2-c2ccncc2)c1 | 100%

test system: MOLT-4; assay: Growth inhibition of human MOLT4 cells assessed as cell growth at 0.1 uM incubated for 48 hrs by sulforhodamine B assay relative to control; assay type: functional; settings: MOLT-4, 48 h, read-out: Activity

SMILES | growth at 0.1 µM
COc1cc(Cl)cc(-c2nn(-c3cccc(NC(=O)c4cccc(C(F)(F)F)c4)c3)cc2-c2ccncc2)c1 | 95%

test system: SF-295; assay: Growth inhibition of human SF295 cells assessed as cell growth at 0.1 uM incubated for 48 hrs by sulforhodamine B assay relative to control; assay type: functional; settings: SF-295, 48 h, read-out: Activity

SMILES | growth at 0.1 µM
COc1cc(Cl)cc(-c2nn(-c3cccc(NC(=O)c4cccc(C(F)(F)F)c4)c3)cc2-c2ccncc2)c1 | 90%

test system: SK-MEL-5; assay: Growth inhibition of human SK-MEL-5 cells assessed as cell growth at 0.1 uM incubated for 48 hrs by sulforhodamine B assay relative to control; assay type: functional; settings: SK-MEL-5, 48 h, read-out: Activity

SMILES | growth at 0.1 µM
COc1cc(Cl)cc(-c2nn(-c3cccc(NC(=O)c4cccc(C(F)(F)F)c4)c3)cc2-c2ccncc2)c1 | 95%

test system: PC-3; assay: Growth inhibition of human PC3 cells assessed as cell growth at 0.1 uM incubated for 48 hrs by sulforhodamine B assay relative to control; assay type: functional; settings: PC-3, 48 h, read-out: Activity

SMILES | growth at 0.1 µM
COc1cc(Cl)cc(-c2nn(-c3cccc(NC(=O)c4cccc(C(F)(F)F)c4)c3)cc2-c2ccncc2)c1 | 52%

test system: SK-MEL-5; assay: Growth inhibition of human SK-MEL-5 cells assessed as cell growth at 1 uM incubated for 48 hrs by sulforhodamine B assay relative to control; assay type: functional; settings: SK-MEL-5, 48 h, read-out: Activity

SMILES | growth at 1 µM
COc1cc(Cl)cc(-c2nn(-c3cccc(NC(=O)c4cccc(C(F)(F)F)c4)c3)cc2-c2ccncc2)c1 | 57%

test system: OVCAR-3; assay: Growth inhibition of human OVCAR3 cells assessed as cell growth at 1 uM incubated for 48 hrs by sulforhodamine B assay relative to control; assay type: functional; settings: OVCAR-3, 48 h, read-out: Activity

SMILES | growth at 1 µM
COc1cc(Cl)cc(-c2nn(-c3cccc(NC(=O)c4cccc(C(F)(F)F)c4)c3)cc2-c2ccncc2)c1 | 102%

test system: OVCAR-5; assay: Growth inhibition of human OVCAR5 cells assessed as cell growth at 1 uM incubated for 48 hrs by sulforhodamine B assay relative to control; assay type: functional; settings: OVCAR-5, 48 h, read-out: Activity

SMILES | growth at 1 µM
COc1cc(Cl)cc(-c2nn(-c3cccc(NC(=O)c4cccc(C(F)(F)F)c4)c3)cc2-c2ccncc2)c1 | 96%

test system: A549; assay: Growth inhibition of human A549/ATCC cells assessed as cell growth at 100 uM incubated for 48 hrs by sulforhodamine B assay relative to control; assay type: functional; settings: A549, 48 h, read-out: Activity

SMILES | growth at 100 µM
COc1cc(Cl)cc(-c2nn(-c3cccc(NC(=O)c4cccc(C(F)(F)F)c4)c3)cc2-c2ccncc2)c1 | 30%

test system: HT-29; assay: Growth inhibition of human HT-29 cells assessed as cell growth at 100 uM incubated for 48 hrs by sulforhodamine B assay relative to control; assay type: functional; settings: HT-29, 48 h, read-out: Activity

SMILES | growth at 100 µM
COc1cc(Cl)cc(-c2nn(-c3cccc(NC(=O)c4cccc(C(F)(F)F)c4)c3)cc2-c2ccncc2)c1 | 34%

test system: DU-145; assay: Growth inhibition of human DU145 cells assessed as cell growth at 100 uM incubated for 48 hrs by sulforhodamine B assay relative to control; assay type: functional; settings: DU-145, 48 h, read-out: Activity

SMILES | growth at 100 µM
COc1cc(Cl)cc(-c2nn(-c3cccc(NC(=O)c4cccc(C(F)(F)F)c4)c3)cc2-c2ccncc2)c1 | 50%
